Measured values reported in patent publication US20060052375A1, “Bis-alkylbenzylamines” (priority 2002, published 2006).

Key:
Assay type in all cases: cell-based
[1] = system: Escherichia coli ATCC 10536; test: Minimum inhibiting concentration (MIC value) in microtitre plates; set-up: unit not given here; details: serial dilution 1:2, 48 hours at 37° C., <20% growth compared with growth control
Method: (§1) Determination of the Minimum Inhibiting Concentration (MIC Value) in Microtitre Plates Nutrient Medium: Casein/soybean flour peptone bouillon for the preparation of the precultures of the test bacteria and yeast. Examples of Test Organisms: Bacteria: Escherichia coli ATCC 10536 (=EC) Staphylococcus aureus ATCC 6538(=SA) Procedure: The test substances are predissolved in dimethyl sulfoxide (DMSO) and tested in a serial dilution of 1:2. Bacteria and yeast are cultured overnight in CASO bouillon. All test organism suspensions are adjusted to an organism count of 1-5×10^6 CFU/ml with 0.85% sodium chloride solution. The test substances are prepipetted into microtitre plates in an amount of 8 μl per well. The previously adjusted organism suspensions are diluted 1:100 in CASO bouillon and added to the test substances in an amount of 192 μl per well. The test batches are incubated for 48 hours at 37° C. After incubation, the growth is determined by reference to the turbidity of the test batches (optical density) at 620 nm in a microplate reader. The minimum inhibiting concentration (MIC value) is the concentration of substance at which an appreciable inhibition of the growth (<20% growth compared with the growth control) of the test organisms is ascertained. Three microtitre plates are used for each test organism and substance concentration.

[2] = system: Staphylococcus aureus ATCC 6538; test: as above; set-up: unit not given here; details: serial dilution 1:2, 48 hours at 37° C., <20% growth compared with growth control
Method: as §1

[3] = system: Aspergillus niger ATCC 6275; test: MIC in agar incorporation test; details: GC purity 88%
Method: (§2) Determination of the Minimum Inhibiting Concentration of the Compound of Formula (3) in Respect of a Wider Spectrum of Organisms The compound of formula (3) (see Table 1; GC purity 88%; prepared in accordance with Example 1) is tested on the microorganisms indicated in Table 3. The test for determining the minimum inhibiting concentration is effected in an agar incorporation test.

[4] = system: C. minutissimum ATCC 23348; test: MIC in agar incorporation test; details: GC purity 88%
Method: as §2

[5] = system: Candida albicans ATCC 10231; test: MIC in agar incorporation test; details: GC purity 88%
Method: as §2

[6] = system: Corynebacterium xerosis ATCC 373; test: MIC in agar incorporation test; details: GC purity 88%
Method: as §2

[7] = system: Escherichia coli ATCC 10536; test: MIC in agar incorporation test; details: GC purity 88%
Method: as §2

[8] = system: Escherichia coli NCTC 8196; test: MIC in agar incorporation test; details: GC purity 88%
Method: as §2

[9] = system: Klebsiella pneumoniae ATCC 4352; test: MIC in agar incorporation test; details: GC purity 88%
Method: as §2

[10] = system: Propionibacterium acnes ATCC 6919; test: MIC in agar incorporation test; details: GC purity 88%
Method: as §2

[11] = system: Proteus vulgaris ATCC 6896; test: MIC in agar incorporation test; details: GC purity 88%
Method: as §2

[12] = system: Pseudomonas aeruginosa ATCC 15442; test: MIC in agar incorporation test; details: GC purity 88%
Method: as §2

[13] = system: Salmonella choleraesuis ATCC 9184; test: MIC in agar incorporation test; details: GC purity 88%
Method: as §2

[14] = system: Staphylococcus aureus ATCC 6538; test: MIC in agar incorporation test; details: GC purity 88%
Method: as §2

[15] = system: Staphylococcus aureus ATCC 9144; test: MIC in agar incorporation test; details: GC purity 88%
Method: as §2

[16] = system: Staphylococcus epidermidis ATCC 12228; test: MIC in agar incorporation test; details: GC purity 88%
Method: as §2

MIC value ATCC 10536 [1] | MIC value ATCC 6538 [2] | SMILES | also measured
15 | 15 | CCCNCc1ccc(-c2ccc(CNCCC)cc2)cc1 [Compound of formula 2] | 
<3.75 | 7.5 | CCCCCCCCNCc1ccc(-c2ccc(CNCCCCCCCC)cc2)cc1 [Compound of formula 3, octyl-(4′-octylaminomethyl-biphenyl-4-ylmethyl)-amine] | MIC [3]: >120; MIC [4]: 1.88; MIC [5]: >120; MIC [6]: 1.88; MIC [7]: 3.75; MIC [8]: 3.75; MIC [9]: 7.5; MIC [10]: 3.75; MIC [11]: >120; MIC [12]: >120; MIC [13]: 7.5; MIC [14]: 3.75; MIC [15]: 3.75; MIC [16]: 3.75
30 | 15 | CC(C)NCc1ccc(-c2ccc(CNC(C)C)cc2)cc1 [Compound of formula 7] | 
30 | 30 | CC(C)CCNCc1ccc(-c2ccc(CNCCC(C)C)cc2)cc1 [Compound of formula 11] | 
7.5 | 7.5 | CCCCC(CC)CNCc1ccc(-c2ccc(CNCC(CC)CCCC)cc2)cc1 (centres unmarked) [Compound of formula 13] | 
>120 | 30 | COCC(C)NCc1ccc(-c2ccc(CNC(C)COC)cc2)cc1 (centres unmarked) [Compound of formula 14] | 
>120 | >120 | c1cc(-c2ccc(CN3CCOCC3)cc2)ccc1CN1CCOCC1 [Compound of formula 18] | 
>120 | >120 | CCCN(CCC)Cc1ccc(-c2ccc(CN(CCC)CCC)cc2)cc1 [Compound of formula 24] | 
>120 | >120 | CN(CCO)Cc1ccc(-c2ccc(CN(C)CCO)cc2)cc1 [Compound of formula 30] | 

Continued, molecule first:

SMILES | MIC value ATCC 10536 [1] | MIC value ATCC 6538 [2] | also measured
CCCCCCCCCCNCc1ccc(-c2ccc(CNCCCCCCCCCC)cc2)cc1 [Compound of formula 4] | 15 | 30 | 
CCCCCCCCCCCNCc1ccc(-c2ccc(CNCCCCCCCCCCC)cc2)cc1 [Compound of formula 5] | 30 | 30 | 
CCCCCCCCCCCCCNCc1ccc(-c2ccc(CNCCCCCCCCCCCCC)cc2)cc1 [Compound of formula 6] | 30 | 30 | 
CCC(C)NCc1ccc(-c2ccc(CNC(C)CC)cc2)cc1 (centres unmarked) [Compound of formula 8] | 60 | 15 | 
CC(C)(C)NCc1ccc(-c2ccc(CNC(C)(C)C)cc2)cc1 [Compound of formula 9] | >120 | 60 | 
CCCC(C)NCc1ccc(-c2ccc(CNC(C)CCC)cc2)cc1 (centres unmarked) [Compound of formula 10] | 30 | 15 | 
CC(C)CC(C)NCc1ccc(-c2ccc(CNC(C)CC(C)C)cc2)cc1 (centres unmarked) [Compound of formula 12] | 60 | 30 | 
c1ccc(CNCc2ccc(-c3ccc(CNCc4ccccc4)cc3)cc2)cc1 [Compound of formula 15] | 120 | 120 | 
c1cc(-c2ccc(CNC3CCCCC3)cc2)ccc1CNC1CCCCC1 [Compound of formula 16] | 120 | 60 | 
c1ccc(CCNCc2ccc(-c3ccc(CNCCc4ccccc4)cc3)cc2)cc1 [Compound of formula 17] | 15 | 15 | 
CC(=O)N1CCN(Cc2ccc(-c3ccc(CN4CCN(C(C)=O)CC4)cc3)cc2)CC1 [Compound of formula 19] | >120 | >120 | 
c1coc(CNCc2ccc(-c3ccc(CNCc4ccco4)cc3)cc2)c1 [Compound of formula 20] | >120 | >120 | 
CCCCN(C)Cc1ccc(-c2ccc(CN(C)CCCC)cc2)cc1 [Compound of formula 21] | 120 | >120 | 
CCCCCCCCCCCCN(C)Cc1ccc(-c2ccc(CN(C)CCCCCCCCCCCC)cc2)cc1 [Compound of formula 22] | 15 | 15 | 
CCN(CC)Cc1ccc(-c2ccc(CN(CC)CC)cc2)cc1 [Compound of formula 23] | >120 | 15 | 
CCCCN(CCCC)Cc1ccc(-c2ccc(CN(CCCC)CCCC)cc2)cc1 [Compound of formula 25] | >120 | >120 | 
CCCCCN(CCCCC)Cc1ccc(-c2ccc(CN(CCCCC)CCCCC)cc2)cc1 [Compound of formula 26] | >120 | 30 | 
CCCCCCN(CCCCCC)Cc1ccc(-c2ccc(CN(CCCCCC)CCCCCC)cc2)cc1 [Compound of formula 27] | >120 | 15 | 
CCCCCCCCN(CCCCCCCC)Cc1ccc(-c2ccc(CN(CCCCCCCC)CCCCCCCC)cc2)cc1 [Compound of formula 28] | 15 | 7.5 | 
c1ccc(CN(Cc2ccccc2)Cc2ccc(-c3ccc(CN(Cc4ccccc4)Cc4ccccc4)cc3)cc2)cc1 [Compound of formula 29] | >120 | >120 | 
c1cc(-c2ccc(CN3CCCCCC3)cc2)ccc1CN1CCCCCC1 [Compound of formula 31] | 120 | 60 | 
